Consider 14 molecules from PubChem BioAssay AID196 (DTP/NCI, 2004).

Structures are written as SMILES. Values joined by “and” are separate entries in the source; they are usually repeats but may differ in a detail not shown here. Equal entries are not always repeated. Inconclusive results and toxic doses are left out.

This test relates to BDF1 mice, intracerebral B16 melanoma, median survival T/C. As to the kind of experiment: NCI In Vivo Anticancer Drug Screen. Data for tumor model B16 Melanoma (intracerebral) in B6D2F1 (BDF1) mice. Particulars: endpoint: median survival time, higher = longer survival. Here is the method:
The antitumor activity of compounds was measured in mice bearing transplantable tumors. Survival or tumor size were measured and the results are expressed as the measurement made in the treated group (T) divided by the measurement made in the vehicle treated control group (C). The tumor model used in this assay is B16 Melanoma (intracerebral) in B6D2F1 (BDF1) mice

The mark [1] stands for this setting: dose: 0.5 mg/kg/injection, schedule: Q01DX009 (ip), vehicle: saline.
[2] abbreviates: dose: 1.0 mg/kg/injection, schedule: Q01DX009 (ip), vehicle: saline.
[3] abbreviates: dose: 2.0 mg/kg/injection, schedule: Q01DX009 (ip), vehicle: saline.
The mark [4] stands for this setting: dose: 4.0 mg/kg/injection, schedule: Q01DX009 (ip), vehicle: saline.
Setting [5] is: dose: 8.0 mg/kg/injection, schedule: Q01DX009 (ip), vehicle: saline.
Setting [6] is: dose: 26.7 mg/kg/injection, schedule: Q01DX001 (ip), vehicle: Klucel (hydroxypropylcellulose) (HPC).

On to `COc1cc([C@@H]2c3cc4c(cc3[C@@H](OC3OC5CO[C@@H](c6cccs6)OC5C(O)C3O)[C@H]3COC(=O)[C@H]23)OCO4)cc(OC)c1O` (stereo not given in full), for which the T/C was 96 % of control (dose: 0.25 mg/kg/injection, schedule: Q01DX009 (ip), vehicle: saline); 107 % of control under setting [1]; 91 % of control (dose: 0.5 mg/kg/injection, schedule: Q01DX009 (ip), vehicle: water); 95 % of control and 100 % of control under setting [2]; 104 % of control (dose: 1.0 mg/kg/injection, schedule: Q01DX009 (ip), vehicle: water); 100 % of control and 108 % of control under setting [3]. For the same molecule, the T/C (dose: 2.0 mg/kg/injection, schedule: Q01DX009 (ip), vehicle: water) is 95 % of control and the T/C under setting [4] is 104 % of control.
On to `F`, for which the T/C is, setting by setting: (dose: 16.0 mg/kg/injection, schedule: Q01DX005 (ip), vehicle: saline) 102 % of control; (dose: 32.0 mg/kg/injection, schedule: Q01DX005 (ip), vehicle: saline) 100 % of control.
As for `CCCCCN(C)/N=N/c1nc[nH]c1C(N)=O`, the T/C (dose: 32.0 mg/kg/injection, schedule: Q01DX005 (ip), vehicle: saline with Tween-80) was 120 % of control.
For the molecule `CC[n+]1c(-c2ccccc2)c2cc(N)ccc2c2ccc(N)cc21`, the T/C by setting is: (dose: 6.0 mg/kg/injection, schedule: Q01DX005 (ip), vehicle: saline) 95 % of control; (dose: 12.0 mg/kg/injection, schedule: Q01DX005 (ip), vehicle: saline) 104 % of control and 105 % of control and 109 % of control; (dose: 24.0 mg/kg/injection, schedule: Q01DX005 (ip), vehicle: saline) 105 % of control.
`O=CC(NC(=O)N(CCCl)N=O)C(O)C(O)C(O)CO` (stereo not given): the T/C is, setting by setting: under setting [2], 97 % of control; under setting [3], 99 % of control; under setting [4], 111 % of control; (dose: 7.5 mg/kg/injection, schedule: Q01DX001 (ip), vehicle: saline with Tween-80) 92 % of control; under setting [5], 117 % of control; (dose: 15.0 mg/kg/injection, schedule: Q01DX001 (ip), vehicle: saline with Tween-80) 119 % of control. Also, the T/C is 120 % of control (dose: 17.8 mg/kg/injection, schedule: Q01DX001 (ip), vehicle: Klucel (hydroxypropylcellulose) (HPC)); 118 % of control under setting [6]; 103 % of control (dose: 30.0 mg/kg/injection, schedule: Q01DX001 (ip), vehicle: saline with Tween-80).
Consider `Nc1nc2c(c(=O)[nH]1)N(C=O)C(CNc1ccc(C(=O)N[C@@H](CCC(=O)O)C(=O)O)cc1)CN2` (stereo not given in full), for which the T/C is 102 % of control (dose: 128.0 mg/kg/injection, schedule: Q01DX005 (ip), vehicle: saline); 95 % of control (dose: 256.0 mg/kg/injection, schedule: Q01DX005 (ip), vehicle: saline); 87 % of control (dose: 512.0 mg/kg/injection, schedule: Q01DX005 (ip), vehicle: saline).
Turning to `CN(C)c1nc(N(C)C)nc(N(C)C)n1`, the T/C (dose: 100.0 mg/kg/injection, schedule: Q01DX005 (ip), vehicle: saline with Tween-80) was 91 % of control.
For `CSCS(=O)C[C@H](CO)NC(=O)/C=C/c1c(C)[nH]c(=O)[nH]c1=O` (stereo not given in full), the T/C runs as follows: (dose: 0.06 mg/kg/injection, schedule: Q01DX005 (ip), vehicle: Klucel (hydroxypropylcellulose) (HPC)) 97 % of control; (dose: 0.12 mg/kg/injection, schedule: Q01DX005 (ip), vehicle: Klucel (hydroxypropylcellulose) (HPC)) 98 % of control; (dose: 0.25 mg/kg/injection, schedule: Q01DX005 (ip), vehicle: Klucel (hydroxypropylcellulose) (HPC)) 103 % of control; (dose: 0.5 mg/kg/injection, schedule: Q01DX005 (ip), vehicle: Klucel (hydroxypropylcellulose) (HPC)) 98 % of control.
Consider `CCC(=O)O[C@H]1CC[C@H]2[C@@H]3CCC4=CC(=O)CC[C@]4(C)[C@H]3CC[C@]12C`, for which the T/C (dose: 8.0 mg/kg/injection, schedule: Q01DX009 (ip), vehicle: Klucel (hydroxypropylcellulose) (HPC)) is 99 % of control; the T/C (dose: 16.0 mg/kg/injection, schedule: Q01DX009 (ip), vehicle: Klucel (hydroxypropylcellulose) (HPC)) was 116 % of control; the T/C (dose: 32.0 mg/kg/injection, schedule: Q01DX009 (ip), vehicle: Klucel (hydroxypropylcellulose) (HPC)) is 111 % of control; the T/C (dose: 64.0 mg/kg/injection, schedule: Q01DX009 (ip), vehicle: Klucel (hydroxypropylcellulose) (HPC)) was 99 % of control; the T/C (dose: 128.0 mg/kg/injection, schedule: Q01DX009 (ip), vehicle: Klucel (hydroxypropylcellulose) (HPC)) is 123 % of control; the T/C (dose: 256.0 mg/kg/injection, schedule: Q01DX009 (ip), vehicle: Klucel (hydroxypropylcellulose) (HPC)) is 97 % of control. Moreover, the T/C (dose: 512.0 mg/kg/injection, schedule: Q01DX009 (ip), vehicle: Klucel (hydroxypropylcellulose) (HPC)) is 104 % of control.
With `O=NN(CCCl)C(=O)NCCCl`, the T/C is 104 % of control and 112 % of control under setting [1]; 109 % of control and 113 % of control under setting [2]; 120 % of control (dose: 1.87 mg/kg/injection, schedule: Q01DX009 (ip), vehicle: saline); 111 % of control and 112 % of control under setting [3]; 108 % of control (dose: 2.5 mg/kg/injection, schedule: Q04DX003 (ip), vehicle: saline sonified); 108 % of control (dose: 3.8 mg/kg/injection, schedule: Q01DX009 (ip), vehicle: saline). Also, the T/C was 158 % of control (dose: 5.0 mg/kg/injection, schedule: Q01DX009 (ip), vehicle: other); 150 % of control (dose: 7.5 mg/kg/injection, schedule: Q01DX009 (ip), vehicle: saline); 172 % of control and 188 % of control under setting [5]; 175 % of control (dose: 10.0 mg/kg/injection, schedule: Q04DX003 (ip), vehicle: saline sonified); 91 % of control and 108 % of control (dose: 15.0 mg/kg/injection, schedule: Q01DX009 (ip), vehicle: saline).
In the case of `COc1cc(NS(C)(=O)=O)ccc1Nc1c2cccc(C)c2nc2c(C)cccc12`, the T/C runs as follows: (dose: 25.0 mg/kg/injection, schedule: Q04DX003 (ip), vehicle: Klucel (hydroxypropylcellulose) (HPC)) 97 % of control; (dose: 25.0 mg/kg/injection, schedule: Q04DX003 (ip), vehicle: saline) 104 % of control; (dose: 50.0 mg/kg/injection, schedule: Q04DX003 (ip), vehicle: Klucel (hydroxypropylcellulose) (HPC)) 94 % of control; (dose: 50.0 mg/kg/injection, schedule: Q04DX003 (ip), vehicle: saline) 116 % of control; (dose: 100.0 mg/kg/injection, schedule: Q04DX003 (ip), vehicle: saline) 95 % of control; (dose: 200.0 mg/kg/injection, schedule: Q04DX003 (ip), vehicle: saline) 104 % of control.
With `O=NN(CCF)C(=O)NC1CCC(=O)NC1=O` (stereo not given), the T/C under setting [6] was 115 % of control; the T/C (dose: 40.0 mg/kg/injection, schedule: Q01DX001 (ip), vehicle: Klucel (hydroxypropylcellulose) (HPC)) was 111 % of control; the T/C (dose: 60.0 mg/kg/injection, schedule: Q01DX001 (ip), vehicle: Klucel (hydroxypropylcellulose) (HPC)) was 157 % of control.
For the molecule `COc1cc(NS(C)(=O)=O)ccc1Nc1c2ccccc2nc2ccccc12`, the T/C reads like this: (dose: 0.5 mg/kg/injection, schedule: Q01DX009 (ip), vehicle: distilled water + Tween-80) 88 % of control; (dose: 1.0 mg/kg/injection, schedule: Q01DX009 (ip), vehicle: distilled water + Tween-80) 116 % of control; (dose: 2.0 mg/kg/injection, schedule: Q01DX009 (ip), vehicle: distilled water + Tween-80) 109 % of control; (dose: 4.0 mg/kg/injection, schedule: Q01DX009 (ip), vehicle: distilled water + Tween-80) 101 % of control; (dose: 5.0 mg/kg/injection, schedule: Q04DX003 (ip), vehicle: Klucel (hydroxypropylcellulose) (HPC)) 94 % of control; (dose: 5.0 mg/kg/injection, schedule: Q04DX003 (ip), vehicle: saline) 108 % of control. Further, the T/C is 97 % of control (dose: 8.0 mg/kg/injection, schedule: Q01DX009 (ip), vehicle: distilled water + Tween-80) and 112 % of control (dose: 10.0 mg/kg/injection, schedule: Q04DX003 (ip), vehicle: saline).
For `C[n+]1c2ccccc2nc2c(N)cc(N)cc21`, the T/C is, setting by setting: (dose: 4.0 mg/kg/injection, schedule: Q01DX005 (ip), vehicle: suspension in saline) 93 % of control; (dose: 8.0 mg/kg/injection, schedule: Q01DX005 (ip), vehicle: suspension in saline) 92 % of control and 98 % of control; (dose: 16.0 mg/kg/injection, schedule: Q01DX005 (ip), vehicle: suspension in saline) 100 % of control and 103 % of control; (dose: 32.0 mg/kg/injection, schedule: Q01DX005 (ip), vehicle: suspension in saline) 93 % of control and 97 % of control.
